# Experimental data reported in patent publication US10167326B2, “Alpha-fetoprotein “ring and tail” peptides” (ALBANY MEDICAL COLLEGE, priority 2010, dated 2019).
# Non-standard residues stand in square brackets, D forms with d. Residues, ends and D or L forms follow the SMILES beside them. Groups on a side chain read outwards from the residue. No end group written: not given here. Hyp = O=C(O)[C@@H]1C[C@@H](O)CN1
# Columns and labels:
# [1] = system: E2-stimulated immature mouse uterine growth; experiment: immature mouse uterine growth assay (inhibition of E2-stimulated uterine growth); type: in vivo; details: for inhibition of E2-stimulated uterine growth, dose response profile: over a number of doses (FIG. 6); for Inhibition ± S.E, % Mouse uterine growth Intraperitoneal: 1 μg/mouse intraperitoneally, E2-stimulated, mean±S.E. (n=5), * p<0.05 vs E2 alone
# Protocol: Four cyclic peptides of decreasing ring size (Table 1) were synthesized and were assessed for antiestrogenic activity using the immature mouse uterine assay. Negative control mice received saline alone. Positive control mice received E2 alone. AFPep was used as a positive control peptide and cyclic Scr was used as a peptide control. Mice were injected intraperitoneally (i.p.) with each of these peptides at a dose of 1 μg/mouse. One hour later mice received 0.5 ug 17β-estradiol (E2) i.p. Twenty-two hours later uteri were dissected, weighed, and normalized to body weight. The results are reported as mean±S.E (n=5) for four independent experiments.
# (§1) A ‘tail’ was attached to a nine-amino acid ring and included 1 or 2 amino acids defined as hydrophilic or hydrophobic based on the nature of their side-chains. Tails comprising the following amino acid(s): serine (S), tyrosine (Y), […], glutamic acid (E), phenylalanine-serine (FS) and tyrosine-isoleucine (YI) represent hydrophilic tails and tails comprising the following amino acid(s), phenylalanine (F), isoleucine (I) and phenylalanine-isoleucine (FI) are hydrophobic tails. All peptides were administered at a dose of 1 μg/mouse intraperitoneally or 10 μg/mouse by oral gavage. Values are presented as mean±S.E. (n=5). In culture, T47D cells were treated with each peptide at a concentration of 1 μM. Values are presented as mean±S.E (n=6). […] Wilcoxon Rank Sum Test.
# (§2) All peptides were administered at a dose of 1 μg/mouse intraperitoneally or 10 μg/mouse by oral gavage. Values are presented as mean±S.E (n=5). In culture, T47D cells were treated with each peptide at a concentration of 1 μM. Values are presented as mean±S.E (n=6). […] Wilcoxon Rank Sum Test.
# To evaluate peptide-induced inhibition by the peptide of the present invention of estrogen-stimulated proliferation of normal tissue, the immature mouse uterine growth assay was utilized. Briefly, 13-15 day-old Swiss/Webster female mice, 6-8 g in body weight, were distributed into treatment groups of 5 mice per group so that each group contained animals of the same range of body weight. The peptide of the invention was injected i.p., s.c., or p.o. into the mice. One hour later, estradiol (E2) or vehicle control for E2 was injected i.p. Twenty-two hours after the second injection, uteri were harvested, trimmed free of mesenteries, and immediately weighed. The uterine weights were normalized to mouse body weights to compensate for differences in body weight among litters of the same age. Experiments employed a minimum of five mice per group and the mean normalized uterine weight±SE for each group was calculated. Percent growth inhibition in a test group was calculated from normalized uterine wet weights as described below.
# The ability to inhibit E2-stimulated growth of normal mouse uterus was used as a screening assay for biological activity of AFPep analogs. In general, inhibitory activity ≥20% is considered to be biologically significant. Each analog's inhibitory effect on E2-stimulated growth was compared to AFPep (a positive control) and to PGVGQ (SEQ ID NO: 51)(a negative control). PGVGQ (SEQ ID NO: 51 amino acids 478-482 of AFP) is a portion of the primary structure of AFP near to the anti-cancer active site of AFP and is comprised of amino acids (P, V, and G) that are important components of AFPep.
# [2] = system: T47D human breast cancer cells; experiment: T47D cell proliferation assay in the presence of E2; type: cell-based; details: peptide 1 μM; E2-stimulated; mean±S.E (n=6); * p<0.05 vs E2 alone
# Protocol: Anticancer activity of the cyclic peptides was also evaluated using the T47D cell proliferation assay. T47D cells were cultured on collagen-IV coated 24-well plates and treated with each of above peptides in the presence of E2. Final peptide concentrations of each peptide were 10^−6 M and final E2 concentration was 1 nM. Values are reported as mean±SEM (n=6) of four independent experiments. […] One-way ANOVA followed by Tukey's multiple comparison test. p≤0.05.
# as §1, §2
# [3] = system: MCF-7 human breast cancer xenograft; experiment: E2-supplemented MCF-7 human breast cancer xenograft assay in SCID mice; type: in vivo, mouse; details: E2 pellets, 10 μg s.c., 10 μg i.p. or 100 μg p.o. once daily day 1 to day 20 (FIG. 8)
# From the text: To determine the effectiveness of cyclo[EKTOVNOGN] (SEQ ID NO: 33)FI as a potential cancer therapeutic agent in a clinically relevant model, we assessed the effect of cyclo[EKTOVNOGN] (SEQ ID NO: 33)FI on E2-supplemented MCF-7 human breast cancer xenograft growth using different routes of administration. Briefly, a piece of MCF-7 human breast cancer measuring approximately 2 mm in average diameter was implanted under the kidney capsule of SCID mice. Mice were supplemented with E2 pellets implanted subcutaneously, at the time of tumor implantation, for a steady state of E2 at 10^−9M. Mice were treated with 10 μg subcutaneously (s.c.), 10 μg intraperitoneally (i.p.) or 100 μg orally (p.o.) cyclo [EKTOVNOGN] (SEQ ID NO: 33) FI was administered once daily from day 1 to day 20 of the experiment. Tumor size was measured as described in materials and methods. Data is presented as mean±S.E (n=5). After 20 days of treatment, the percentage change in tumor volume for each cyclo [EKTOVNOGN] […] One-way ANOVA followed by Tukey's multiple comparison test. *p<0.01 vs. E2.
# The peptides of the invention were evaluated for their ability to inhibit tumor growth in a human tumor xenograft assay. Briefly, MCF-7 human breast cancer cells were obtained from ATCC® (Rockville, Md.) and were grown in DMEM supplemented with 5% FCS, 1% non-essential amino acids, 10 ng/ml insulin, 2 mM L-glutamine, 100 units/ml penicillin, and 100 μg/ml streptomycin. MCF-7 cells from culture were solidified into a fibrin clot. The tumor-containing clots were cut into pieces about 1.5 mm in diameter and implanted under the kidney capsule of severe combined immunodeficient (ICR-SCID) mice (Taconic Farms, Germantown, N.Y.) as described in Bennett et al. (Clin. Cancer Res. 1998; 4:2877-84).
# Estrogen supplementation of mice was required for the growth of MCF-7 tumors. […] Tumor size was evaluated during survival laparotomy using a dissecting microscope at the time of tumor implantation and at days 15 and 30 after tumor implantation. […]
# [4] = system: Estrogen independent (ER−) MDA MB231 cells; experiment: MDA MB231 cell growth (MTT assay); type: cell-based, human; details: 10^−6M, 7 days, MTT (FIG. 9)
# Protocol: Estrogen independent (ER^−)MDA MB231 cells were plated at 20,000 cells/well/ml in a collagen-IV coated 24-well plate. The next day, cells were treated with vehicle (0.1% ethanol), AFPep, cyclo[EKTOVNOGN] (SEQ ID NO: 33) YI, for 7 days. Each peptide was treated at 10^−6M. Cell proliferation was determined by MTT assay. Each value is the mean±S.E. (n=4) of three independent experiments.
# [5] = system: T47D human breast cancer cells; experiment: T47D cell proliferation assay in the presence of E2; type: cell-based; details: different concentrations in vitro (FIG. 7)
Compound,"inhibition of E2-stimulated uterine growth, dose response profile [1]","Inhibition ± S.E, % T47D cell proliferation [2]","inhibition of E2-stimulated T47D human breast cancer cell growth, concentration response profile [5]",other results
CC[C@H](C)[C@H](NC(=O)[C@H](Cc1ccccc1)NC(=O)C[C@@H]1NC(=O)CNC(=O)[C@@H]2C[C@@H](O)CN2C(=O)[C@H](CC(N)=O)NC(=O)[C@H](C(C)C)NC(=O)[C@@H]2C[C@@H](O)CN2C(=O)[C@H]([C@@H](C)O)NC(=O)[C@H](CCCCN)NC(=O)[C@H](CCC(=O)O)NC1=O)C(N)=O [cyclo[EKTOVNOGN]FI] (cyclo(EKT[Hyp]VN[Hyp]GD([Phe-Ile-NH2]))),significantly inhibited E2-stimulated growth in a dose-dependent manner and maintained its effectiveness at very high doses,66 ± 2* %,"inhibited E2-stimulated T47D human breast cancer cell growth in a concentration-dependent manner, even at high concentrations","efficacy in inhibition of E2-stimulated growth compared with AFPep ([1]; in vivo and in vitro, summary statements): more effective at inhibiting E2-stimulated growth than AFPep; inhibition of MCF-7 xenograft growth (change in tumor volume) [3]: significantly different from the E2 alone group; inhibition of MCF-7 xenograft growth (change in tumor volume) ([3]; listed as cyclo [ETKOVNOGN] FI): significantly inhibited the growth of tumor xenografts; effect on growth of ER− MDA MB 231 cells in culture [4]: no effect"
"cyclo[EKTOVGOGN]K (EKT[Hyp]VG[Hyp]GNK; bridge (positions not given here); not fully specified (bridges); printed as cyclo[EKTOVGOGN]K; also: cyclic ring with lysine tail, ring closure and tail attachment not given here)",–,–,–,"Inhibition ± S.E, % Mouse uterine growth Intraperitoneal [1]: 7 ± 3%"
cyclo[EKTOVNOGN]FS,–,–,–,"Inhibition ± S.E, % Mouse uterine growth Intraperitoneal [1]: 7 ± 3%"
CC[C@H](C)[C@H](NC(=O)C[C@@H]1NC(=O)CNC(=O)[C@@H]2C[C@@H](O)CN2C(=O)[C@H](CC(N)=O)NC(=O)[C@H](C(C)C)NC(=O)[C@@H]2C[C@@H](O)CN2C(=O)[C@H]([C@@H](C)O)NC(=O)[C@H](CCCCN)NC(=O)[C@H](CCC(=O)O)NC1=O)C(N)=O [cyclo[EKTOVNOGN]I] (cyclo(EKT[Hyp]VN[Hyp]GD([Ile-NH2]))),–,55 ± 6* %,–,–
TOVNOGNEK (T[Hyp]VN[Hyp]GNEK),superior dose response profile,–,superior dose response profile,inhibition of MCF-7 xenograft growth (change in tumor volume) [3]: efficacy equivalent to AFPep
TOVNO (T[Hyp]VN[Hyp]),undesirable,–,undesirable,–
CC[C@H](C)[C@H](NC(=O)[C@H](Cc1ccc(O)cc1)NC(=O)C[C@@H]1NC(=O)CNC(=O)[C@@H]2C[C@@H](O)CN2C(=O)[C@H](CC(N)=O)NC(=O)[C@H](C(C)C)NC(=O)[C@@H]2C[C@@H](O)CN2C(=O)[C@H]([C@@H](C)O)NC(=O)[C@H](CCCCN)NC(=O)[C@H](CCC(=O)O)NC1=O)C(N)=O [cyclo[EKTOVNOGN]YI] (cyclo(EKT[Hyp]VN[Hyp]GD([Tyr-Ile-NH2]))),very little antiestrogenic activity,24 ± 3%,ineffective,–
